The values below come from patent publication US11524940B1, “Inhibitors of cysteine proteases and methods of use thereof” (priority 2020, dated 2022).

The IC50 is the concentration that inhibits the measured activity by half. For orientation: EC50 means the concentration giving half of the maximal effect.

One test addresses SARS-CoV2 Mpro (Severe acute respiratory syndrome coronavirus 2 (2019-nCoV) (SARS-CoV-2), UniProt P0DTD1). Put plainly: COVID-19 (SARS-CoV2) Mpro enzymatic assay. Format: biochemical. The conditions noted are these: 25 nM Mpro, 25 μM substrate.
The next test addresses 229E Mpro (Human coronavirus 229E (HCoV-229E), UniProt P0C6X1). Put plainly: 229E Mpro activity. Format: biochemical. The conditions noted are these: read-out: 229E Mpro EC50.

Sequence of 229E Mpro (P0C6X1 2966-3267 limits assumed): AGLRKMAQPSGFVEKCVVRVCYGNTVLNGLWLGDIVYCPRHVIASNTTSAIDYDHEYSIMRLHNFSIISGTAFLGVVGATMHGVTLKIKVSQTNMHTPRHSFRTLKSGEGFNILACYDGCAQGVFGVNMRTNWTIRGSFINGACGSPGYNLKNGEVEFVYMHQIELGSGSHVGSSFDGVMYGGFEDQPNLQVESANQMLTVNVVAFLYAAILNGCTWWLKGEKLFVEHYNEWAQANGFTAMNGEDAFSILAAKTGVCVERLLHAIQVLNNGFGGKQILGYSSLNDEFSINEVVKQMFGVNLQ
Protocol for 229E Mpro: Compounds are assayed using standard methods to assess compound activity and IC50. […] The assay buffer contains 20 mM of Tris-HCl (pH 7.3), 100 mM of NaCl, 1 mM of EDTA, 5mM of TCEP and 0.1% BSA.

As for `N#C[C@H](C[C@@H]1CCNC1=O)NC(=O)C1CC2(CCC2)CN1C(=O)c1cc2ccc(Cl)c(Cl)c2[nH]1` (single isomer, unassigned) [814 (Isomer 1)], on SARS-CoV2 Mpro, the IC50 was above 30 µM. Further, on 229E Mpro, the EC50 was above 30 µM.
On SARS-CoV2 Mpro, `N#C[C@H](C[C@@H]1CCNC1=O)NC(=O)C1CC2(CCC2)CN1C(=O)c1cc2ccc(Cl)c(Cl)c2[nH]1` (single isomer, unassigned) [814 (Isomer 2)] showed an IC50 below 2 µM. Moreover, the EC50 on 229E Mpro is below 2 µM.
For `COc1ccc(Cl)c2[nH]c(C(=O)N3CC4(CCCCC4)CC3C(=O)N[C@H](C#N)C[C@@H]3CCNC3=O)cc12` (single isomer, unassigned) [882 (Isomer 1)], the concentration for half-maximal inhibition (IC50) on SARS-CoV2 Mpro is below 2 µM. Also, the concentration giving a half-maximal response (EC50) at 229E Mpro was below 2 µM.
`COc1ccc(Cl)c2[nH]c(C(=O)N3CC4(CCCCC4)CC3C(=O)N[C@H](C#N)C[C@@H]3CCNC3=O)cc12` (single isomer, unassigned) [882 (Isomer 2)] displayed a half-maximal inhibitory concentration (IC50) against SARS-CoV2 Mpro of 10 to 30 µM. Moreover, at 229E Mpro, the EC50 is 10 to 30 µM.
`COc1ccc2[nH]c(C(=O)N3CC4(CCC4)CC3C(=O)N[C@H](C#N)C[C@@H]3CCNC3=O)cc2c1Cl` (single isomer, unassigned) [886 (Isomer 1)]: the IC50 at SARS-CoV2 Mpro was above 30 µM. Moreover, on 229E Mpro, the EC50 is above 30 µM.
`COc1ccc2[nH]c(C(=O)N3CC4(CCC4)CC3C(=O)N[C@H](C#N)C[C@@H]3CCNC3=O)cc2c1Cl` (single isomer, unassigned) [886 (Isomer 2)]: the half-maximal inhibitory concentration (IC50) against SARS-CoV2 Mpro was below 2 µM. Moreover, on 229E Mpro, the EC50 is below 2 µM.
As to `COc1ccc(Cl)c2[nH]c(C(=O)N3CC4(CCCCC4)CC3C(=O)NC(C#N)C[C@@H]3CCCNC3=O)cc12` (single isomer, unassigned) [902 (Isomer 1)], the half-inhibitory concentration (IC50) against SARS-CoV2 Mpro was below 2 µM. Besides, the EC50 at 229E Mpro is below 2 µM.
`COc1ccc(Cl)c2[nH]c(C(=O)N3CC4(CCCCC4)CC3C(=O)NC(C#N)C[C@@H]3CCCNC3=O)cc12` (single isomer, unassigned) [902 (Isomer 2)] showed an IC50 at SARS-CoV2 Mpro of 2 to 10 µM. For the same compound, at 229E Mpro, the 50% effective concentration (EC50) was 10 to 30 µM.
The compound `COc1ccc(Cl)c2[nH]c(C(=O)N3CC4(CCCCC4)CC3C(=O)NC(C#N)C[C@@H]3CCCNC3=O)cc12` (single isomer, unassigned) [902 (Isomer 3)] returned a half-inhibitory concentration (IC50) at SARS-CoV2 Mpro below 2 µM. In addition, at 229E Mpro, the EC50 is below 2 µM.
With `COc1ccc(Cl)c2[nH]c(C(=O)N3CC4(CCCCC4)CC3C(=O)NC(C#N)C[C@@H]3CCCNC3=O)cc12` (single isomer, unassigned) [902 (Isomer 4)], the 50% inhibitory concentration (IC50) on SARS-CoV2 Mpro was above 30 µM. Further, the EC50 on 229E Mpro was above 30 µM.
Take `COc1cc(Cl)cc2[nH]c(C(=O)N3CC4(CCCCC4)CC3C(=O)N[C@H](C#N)C[C@@H]3CCCNC3=O)cc12` (single isomer, unassigned) [908 (Isomer 1)]: at SARS-CoV2 Mpro, the half-inhibitory concentration (IC50) was below 2 µM. For the same compound, the concentration for a half-maximal effect (EC50) on 229E Mpro is below 2 µM.
In the case of `COc1cc(Cl)cc2[nH]c(C(=O)N3CC4(CCCCC4)CC3C(=O)N[C@H](C#N)C[C@@H]3CCCNC3=O)cc12` (single isomer, unassigned) [908 (Isomer 2)], at SARS-CoV2 Mpro, the half-maximal inhibitory concentration (IC50) fell in the range of 2 to 10 µM. In addition, the concentration giving a half-maximal response (EC50) on 229E Mpro was 2 to 10 µM.
For the compound `CC1(C)CCC(C[C@@H](C#N)NC(=O)C2CC3(CCCCC3)CN2C(=O)c2cc3cccc(Cl)c3[nH]2)C(=O)N1` (single isomer, unassigned) [928 (Isomer 3)], the IC50 against SARS-CoV2 Mpro is below 2 µM. Moreover, on 229E Mpro, the EC50 was 2 to 10 µM.
In the case of `CC1(C)CCC(C[C@@H](C#N)NC(=O)C2CC3(CCCCC3)CN2C(=O)c2cc3cccc(Cl)c3[nH]2)C(=O)N1` (single isomer, unassigned) [928 (Isomer 4)], the IC50 on SARS-CoV2 Mpro was in the range of 2 to 10 µM. Besides, the EC50 at 229E Mpro is above 30 µM.
For `CC1(C)CC(C[C@@H](C#N)NC(=O)C2CC3(CCCCC3)CN2C(=O)c2cc3cccc(Cl)c3[nH]2)C(=O)N1` (single isomer, unassigned) [930 (Isomer 1)] the same measures were 10 to 30 µM and above 30 µM.
On SARS-CoV2 Mpro, `CC1(C)CC(C[C@@H](C#N)NC(=O)C2CC3(CCCCC3)CN2C(=O)c2cc3cccc(Cl)c3[nH]2)C(=O)N1` (single isomer, unassigned) [930 (Isomer 2)] yielded an IC50 of 10 to 30 µM. Also, the EC50 on 229E Mpro is above 30 µM.
As to `CC1(C)CC(C[C@@H](C#N)NC(=O)C2CC3(CCCCC3)CN2C(=O)c2cc3cccc(Cl)c3[nH]2)C(=O)N1` (single isomer, unassigned) [930 (Isomer 3)], the half-maximal inhibitory concentration (IC50) on SARS-CoV2 Mpro is below 2 µM. For the same compound, the EC50 at 229E Mpro was below 2 µM.
The compound `CC1(C)CC(C[C@@H](C#N)NC(=O)C2CC3(CCCCC3)CN2C(=O)c2cc3cccc(Cl)c3[nH]2)C(=O)N1` (single isomer, unassigned) [930 (Isomer 3.1)] gave a half-inhibitory concentration (IC50) at SARS-CoV2 Mpro below 2 µM. Besides, the half-maximal effective concentration (EC50) on 229E Mpro was below 2 µM.
`CC1(C)CC(C[C@@H](C#N)NC(=O)C2CC3(CCCCC3)CN2C(=O)c2cc3cccc(Cl)c3[nH]2)C(=O)N1` (single isomer, unassigned) [930 (Isomer 3.2)] registered a half-inhibitory concentration (IC50) at SARS-CoV2 Mpro of 2 to 10 µM. In addition, at 229E Mpro, the concentration for a half-maximal effect (EC50) fell in the range of 10 to 30 µM.
On the same counts, the results for `CC1(C)CC(C[C@@H](C#N)NC(=O)C2CC3(CCCCC3)CN2C(=O)c2cc3cccc(Cl)c3[nH]2)C(=O)N1` (single isomer, unassigned) [930 (Isomer 4)] are 2 to 10 µM and 10 to 30 µM.
For `CC1(C)CC(C[C@@H](C#N)NC(=O)C2CC3(CCCCC3)CN2C(=O)c2cc3cccc(Cl)c3[nH]2)C(=O)N1` (single isomer, unassigned) [930 (Isomer 5)] the same measures were 10 to 30 µM and above 30 µM.
For `CC1(C)CC(C[C@@H](C#N)NC(=O)C2CC3(CCCCC3)CN2C(=O)c2cc3cccc(Cl)c3[nH]2)C(=O)N1` (single isomer, unassigned) [930 (Isomer 6)] the same measures were below 2 µM and below 2 µM.
For `COc1cccc2[nH]c(C(=O)N3CC4(CCC(F)(F)CC4)CC3C(=O)N[C@H](C#N)C[C@@H]3CCCNC3=O)cc12` (single isomer, unassigned) [982 (Isomer 1)], the concentration for half-maximal inhibition (IC50) against SARS-CoV2 Mpro is below 2 µM. Further, the concentration for a half-maximal effect (EC50) at 229E Mpro is below 2 µM.
Consider `COc1cccc2[nH]c(C(=O)N3CC4(CCC(F)(F)CC4)CC3C(=O)N[C@H](C#N)C[C@@H]3CCCNC3=O)cc12` (single isomer, unassigned) [982 (Isomer 2)], for which the half-inhibitory concentration (IC50) against SARS-CoV2 Mpro is above 30 µM. For the same compound, the 50% effective concentration (EC50) at 229E Mpro was above 30 µM.
As for `N#C[C@H](C[C@@H]1CCNC1=O)NC(=O)C1CC2(CCC2)CN1C(=O)c1cc2cccc(Cl)c2[nH]1` (single isomer, unassigned) [988 (Isomer 1)], the 50% inhibitory concentration (IC50) on SARS-CoV2 Mpro was above 30 µM. For the same compound, on 229E Mpro, the EC50 is above 30 µM.
Take `N#C[C@H](C[C@@H]1CCNC1=O)NC(=O)C1CC2(CCC2)CN1C(=O)c1cc2cccc(Cl)c2[nH]1` (single isomer, unassigned) [988 (Isomer 2)]: the IC50 on SARS-CoV2 Mpro is below 2 µM. Also, the concentration for a half-maximal effect (EC50) on 229E Mpro was below 2 µM.
Consider `N#C[C@H](C[C@@H]1CCNC1=O)NC(=O)C1CC2(CCC2)CN1C(=O)c1cc2ccc(Cl)cc2[nH]1` (single isomer, unassigned) [990 (Isomer 1)], for which the concentration for half-maximal inhibition (IC50) against SARS-CoV2 Mpro is above 30 µM. Also, at 229E Mpro, the half-maximal effective concentration (EC50) was above 30 µM.
Turning to `N#C[C@H](C[C@@H]1CCNC1=O)NC(=O)C1CC2(CCC2)CN1C(=O)c1cc2ccc(Cl)cc2[nH]1` (single isomer, unassigned) [990 (Isomer 2)], the concentration for half-maximal inhibition (IC50) against SARS-CoV2 Mpro is below 2 µM. On 229E Mpro, the concentration giving a half-maximal response (EC50) was below 2 µM.
The compound `COc1ccc(Cl)c2[nH]c(C(=O)N3CC4(CCC4)CC3C(=O)N[C@H](C#N)C[C@@H]3CCNC3=O)cc12` (single isomer, unassigned) [992 (Isomer 1)] registered an IC50 against SARS-CoV2 Mpro below 2 µM. The EC50 on 229E Mpro is below 2 µM.
`COc1ccc(Cl)c2[nH]c(C(=O)N3CC4(CCC4)CC3C(=O)N[C@H](C#N)C[C@@H]3CCNC3=O)cc12` (single isomer, unassigned) [992 (Isomer 2)] came in with a half-maximal inhibitory concentration (IC50) against SARS-CoV2 Mpro above 30 µM. The 50% effective concentration (EC50) on 229E Mpro was above 30 µM.
The compound `CC1(C)CC(C[C@@H](C#N)NC(=O)[C@H](CC2CC2)NC(=O)c2cc3cccc(Cl)c3[nH]2)C(=O)N1` (single isomer, unassigned) [1053 (Isomer 1)] displayed a 50% inhibitory concentration (IC50) against SARS-CoV2 Mpro of 2 to 10 µM. Also, the EC50 on 229E Mpro was above 30 µM.
On the same counts, the results for `COc1cccc2[nH]c(C(=O)N[C@@H](CC3CC3)C(=O)N[C@](C)(C#N)CC3CCNC3=O)cc12` (single isomer, unassigned) [1055 (Isomer 2)] are above 30 µM and above 30 µM.
As to `COc1cccc2[nH]c(C(=O)N[C@@H](CC3CC3(F)F)C(=O)N[C@H](C#N)C[C@@H]3CCCNC3=O)cc12` (single isomer, unassigned) [1059 (Isomer 1)], the half-maximal inhibitory concentration (IC50) on SARS-CoV2 Mpro was below 2 µM. The concentration for a half-maximal effect (EC50) on 229E Mpro is below 2 µM.
For `COc1cccc2[nH]c(C(=O)N[C@@H](CC3CC3(F)F)C(=O)N[C@H](C#N)C[C@@H]3CCCNC3=O)cc12` (single isomer, unassigned) [1059 (Isomer 2)], the half-inhibitory concentration (IC50) on SARS-CoV2 Mpro lay in the range of 10 to 30 µM. In addition, the EC50 on 229E Mpro was 10 to 30 µM.
In the case of `COc1cccc2[nH]c(C(=O)N3CC4(CCCCC4)CC3C(=O)N[C@H](C#N)CC3CCC(C)(C)NC3=O)cc12` (single isomer, unassigned) [1111 (Isomer 1)], the IC50 at SARS-CoV2 Mpro was below 2 µM. Besides, the EC50 on 229E Mpro was 2 to 10 µM.
Turning to `COc1cccc2[nH]c(C(=O)N3CC4(CCCCC4)CC3C(=O)N[C@H](C#N)CC3CCC(C)(C)NC3=O)cc12` (single isomer, unassigned) [1111 (Isomer 2)], the concentration for half-maximal inhibition (IC50) against SARS-CoV2 Mpro is above 30 µM. Further, the 50% effective concentration (EC50) at 229E Mpro is above 30 µM.
In the case of `COc1cccc2[nH]c(C(=O)N3CC4(CCCCC4)CC3C(=O)N[C@H](C#N)CC3CCC(C)(C)NC3=O)cc12` (single isomer, unassigned) [1111 (Isomer 3)], on SARS-CoV2 Mpro, the IC50 was below 2 µM. For the same compound, the half-maximal effective concentration (EC50) on 229E Mpro was 2 to 10 µM.
On the same counts, the results for `COc1cccc2[nH]c(C(=O)N3CC4(CCCCC4)CC3C(=O)N[C@H](C#N)CC3CCC(C)(C)NC3=O)cc12` (single isomer, unassigned) [1111 (Isomer 4)] are above 30 µM and above 30 µM.
Consider `COc1cc(Cl)c2[nH]c(C(=O)N3CC4(CCCCC4)CC3C(=O)N[C@H](C#N)C[C@@H]3CCCNC3=O)cc2c1` (single isomer, unassigned) [1147A (Isomer 1)], for which the IC50 against SARS-CoV2 Mpro is below 2 µM. In addition, the concentration giving a half-maximal response (EC50) on 229E Mpro is below 2 µM.
